Values after ≈ are worked out from the molar mass of the structure shown. Where two headings read alike, the source gives them in different places. Where no end group is shown, it is not given here.
Assay: Solubility study
Assay type: physicochemical
[1] = water, read-out: Solubility Water

solubility (PBS, read-out: Solubility PBS) | solubility in water (water) | solubility [1] | solubility in aqueous buffers (aqueous buffers such as PBS) | Compound
120 µg/mL (≈ 65.8 µM) | water insoluble |  | weakly soluble | CC(C)C[C@H](NC(=O)[C@H](CCC(N)=O)NC(=O)[C@H](Cc1ccc(O)cc1)NC(=O)[C@H](CCC(N)=O)NC(=O)[C@H](Cc1ccccc1)NC(=O)[C@H](CC(=O)O)NC(=O)[C@H](CC(C)C)NC(=O)[C@H](Cc1ccc(O)cc1)NC(=O)[C@H](CO)NC(=O)[C@H](CC(C)C)NC(=O)[C@H](CCCCN)NC(=O)[C@H](CCC(N)=O)NC(=O)[C@@H](N)Cc1ccc(O)cc1)C(=O)N[C@@H](CC(=O)O)C(=O)O [G7]
30 µg/mL |  | 130 µg/mL |  | YQKLSYLDFQKQLD [G7K11]
80 µg/mL | improved water solubility | 360 µg/mL |  | YQKLSYLDFQYQKD [G7K13]

The next lines start with the compound.

Compound | solubility (PBS, read-out: Solubility PBS) | solubility in water (water) | solubility [1] | solubility in aqueous buffers (aqueous buffers such as PBS)
CC(C)C[C@H](NC(=O)[C@H](CCC(N)=O)NC(=O)[C@H](Cc1ccc(O)cc1)NC(=O)[C@H](CCC(N)=O)NC(=O)[C@H](Cc1ccccc1)NC(=O)[C@H](CC(=O)O)NC(=O)[C@H](CC(C)C)NC(=O)[C@H](Cc1ccc(O)cc1)NC(=O)[C@H](CO)NC(=O)[C@H](CC(C)C)NC(=O)[C@H](CCCCN)NC(=O)[C@H](CCC(N)=O)NC(=O)[C@H](Cc1ccc(O)cc1)NC(=O)[C@@H](N)CCCCN)C(=O)N[C@@H](CC(=O)O)C(=O)O [G7K-1] | 60 µg/mL (≈ 30.7 µM) | improved water solubility | 380 µg/mL (≈ 195 µM) | 
YKKLSYLDFQYQLD [G7K2] | 240 µg/mL | highest solubility | 780 µg/mL | 
YQKLSYLDFQYQKDK [G7K15] | 80 µg/mL |  | 180 µg/mL | 
